These results are taken from paper PMC10244169, “Psychedelics promote plasticity by directly binding to BDNF receptor TrkB” (Nature Neuroscience, 2023).

The term Kd denotes the constant that tells how readily two partners part at equilibrium. A high value points to lower affinity.

Molecules are shown by their SMILES.

Assay [1] concerns the target T1, TrkB:PLCγ1 (Mus musculus, UniProt P15209, Y433F).
T1 construct: from tissue; host or cells: prefrontal cortex and hippocampus of adult mice
As to the kind of experiment: TrkB:PLCγ1 interaction in PFC and hippocampus after single LSD injection (ELISA, co-immunoprecipitation). The conditions noted are these: Y433F^+/− mice. In kind it is in vivo. Here is the method:
(§1) The phosphorylation of TrkB (pY816) and interaction with PLCγ1 were assessed by enzyme-linked immunosorbent assay (ELISA) as previously described[11],[80],[81] with minor modifications. Briefly, white 96-well plates (PerkinElmer, OptiPlate 96F-HB) were precoated with goat anti-TrkB (R&D systems, AF1494; 1:500, overnight, 4 °C) antibody in carbonate buffer (pH 9.8) and blocked with 3% BSA in PBS with 0.1% Tween-20 (PBS-T) for 2 h at room temperature. […] Samples were incubated overnight at 4 °C, and 24 h later plates were washed with PBS-T and incubated with either rabbit anti-phospho-TrkB(Tyr816) (Cell Signaling Technology, 4168S; 1:2,000), rabbit anti-PLCγ1 (Cell Signaling Technologies, 5690S; 1:2,000) or rabbit anti-Trk (Cell Signaling Technologies, 92991; 1:2,000) antibodies overnight at 4 °C. After washing with PBS-T, plates were incubated with HRP-conjugated goat anti-rabbit (Bio-Rad, 170–5046; 1:5,000, 1 h, room temperature) antibody, followed by more washing with PBS-T. Finally, the chemiluminescent signal was read after brief incubation with Pierce ECL substrate (Thermo Fisher Scientific, 32106). Luminescence from blank wells that contained all reagents but the sample lysates was used to determine background signal. […]

Assay [2] deals with T2, TrkB:PLCγ1 (Mus musculus, UniProt P15209).
T2 construct: from tissue; host or cells: prefrontal cortex and hippocampus of adult mice
T2 sequence (P15209 32-821): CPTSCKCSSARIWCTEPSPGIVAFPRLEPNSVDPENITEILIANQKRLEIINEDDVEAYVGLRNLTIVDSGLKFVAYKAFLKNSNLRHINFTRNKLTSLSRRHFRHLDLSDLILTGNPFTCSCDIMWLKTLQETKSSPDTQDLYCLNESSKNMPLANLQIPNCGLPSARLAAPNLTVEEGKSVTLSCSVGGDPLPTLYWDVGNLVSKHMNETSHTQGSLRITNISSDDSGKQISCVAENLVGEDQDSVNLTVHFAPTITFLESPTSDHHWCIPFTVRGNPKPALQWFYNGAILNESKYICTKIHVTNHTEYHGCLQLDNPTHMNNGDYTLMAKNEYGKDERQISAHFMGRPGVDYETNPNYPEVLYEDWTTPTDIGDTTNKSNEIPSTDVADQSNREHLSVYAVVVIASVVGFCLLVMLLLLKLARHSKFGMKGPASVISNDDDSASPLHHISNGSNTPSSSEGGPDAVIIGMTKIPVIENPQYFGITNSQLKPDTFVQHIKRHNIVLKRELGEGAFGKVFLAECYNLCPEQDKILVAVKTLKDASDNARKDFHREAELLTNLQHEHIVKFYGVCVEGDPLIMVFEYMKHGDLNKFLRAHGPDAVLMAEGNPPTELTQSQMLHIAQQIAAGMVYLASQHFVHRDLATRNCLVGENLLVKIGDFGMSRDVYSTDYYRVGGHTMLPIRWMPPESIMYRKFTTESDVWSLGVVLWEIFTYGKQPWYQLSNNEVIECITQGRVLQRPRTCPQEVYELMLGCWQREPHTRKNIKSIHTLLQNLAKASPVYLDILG
The assay is described as above. Particulars: WT mice, single administration. In kind it is in vivo. Here is the method:
as §1

A further assay relates to pmTOR. Nature of the assay: Western blot of mTOR phosphorylation in cortical neurons. The class given is cell-based, rat. The conditions noted are these: LSD 100 nM. Here is the method: (§2) In a separate set of experiments to examine the effect of 5-HT2A activation, M100907 (100 nM) was administered as a 10 min pretreatment and remained in the medium for the rest of the experiment. Next, cells were lysed and centrifuged. […] The co-immunoprecipitation was carried out as previously described[11],[23],[24] with minor modifications. Briefly, Magnetic Dynabeads Protein G (Invitrogen, 10004D) were coated with anti-TrkB antibody (R&D Systems, AF1494) at 200 ng of antibody per 1 µl of beads in rotation (2 h, 4 °C). Finally, lysates were mixed with the coated beads (100 µg of total protein per 15 µl of beads) and incubated in rotation (overnight, 4 °C).
(§3) Proteins were separated according to their molecular weight by SDS–PAGE and transferred to a polyvinylidene fluoride membrane. Membranes were incubated with the following primary antibodies (all 1:1,000 in 3% BSA in TBS-T, overnight, 4 °C): anti-TrkB (R&D Systems, AF1494), anti-β-actin (Sigma-Aldrich, A1978), anti-phospho-mTOR (Cell Signaling Technology, 5536S), anti-phospho-p44/42 MAPK (Erk1/2) (Cell Signaling Technology, 9106S), anti-mTOR (Cell Signaling Technology, 2972S) and anti-p44/42 MAPK (Erk1/2) (Cell Signaling Technology, 9102S). […] Protein bands were visualized using enhanced chemiluminescent substrate (Thermo Scientific, 32132, ECL Plus) and imaged with a charge-coupled device camera (G:BOX, Syngene).

Assay [3] concerns TrkB. As to the kind of experiment: Western blot of TrkB protein expression in N2a cells. In kind it is cell-based. Particulars: WT and Y433F^+/−. Here is the method: as §2, §3
The subject of assay [4] is TrkB. Nature of the assay: Total TrkB expression in PFC and hippocampus after single LSD injection. In kind it is in vivo, mouse. The conditions noted are these: PFC or hippocampus, WT or Y433F^+/− mice. Here is the method: The phosphorylation of TrkB (pY816) and interaction with PLCγ1 were assessed by enzyme-linked immunosorbent assay (ELISA) as previously described[11],[80],[81] with minor modifications. Briefly, white 96-well plates (PerkinElmer, OptiPlate 96F-HB) were precoated with goat anti-TrkB (R&D systems, AF1494; 1:500, overnight, 4 °C) antibody in carbonate buffer (pH 9.8) and blocked with 3% BSA in PBS with 0.1% Tween-20 (PBS-T) for 2 h at room temperature. […] Samples were incubated overnight at 4 °C, and 24 h later plates were washed with PBS-T and incubated with either rabbit anti-phospho-TrkB(Tyr816) (Cell Signaling Technology, 4168S; 1:2,000), rabbit anti-PLCγ1 (Cell Signaling Technologies, 5690S; 1:2,000) or rabbit anti-Trk (Cell Signaling Technologies, 92991; 1:2,000) antibodies overnight at 4 °C. After washing with PBS-T, plates were incubated with HRP-conjugated goat anti-rabbit (Bio-Rad, 170–5046; 1:5,000, 1 h, room temperature) antibody, followed by more washing with PBS-T. Finally, the chemiluminescent signal was read after brief incubation with Pierce ECL substrate (Thermo Fisher Scientific, 32106). Luminescence from blank wells that contained all reagents but the sample lysates was used to determine background signal.

For the next assay, the target named is T3, mouse TrkB (Mus musculus, UniProt P15209).
T3 construct: from tissue; host or cells: mouse embryo (E18) brain
T3 sequence (P15209 32-821): as above
Nature of the assay: ^3H-LSD saturation binding to immunoprecipitated TrkB. Here is the method: Binding assays were performed as previously described with minor modifications. […] Samples from mouse embryo (E18) brains were also lysed, vortexed, sonicated and centrifuged for binding assays. Plates were then washed with PBS. […] For the competition binding assays with biotinylated R,R-HNK, the amino-biotinylation of R,R-HNK was performed using a commercial kit (Thermo Scientific, EZ-Link NHS-PEG4 Biotinylation Kit, 21455) and the reaction monitored by MS. A mixture of biotinylated R,R-HNK (10 µM) and unlabeled compounds (1 pM to 10 µM) in PBS was added to the 96-well plates containing the immunoprecipitated TrkB and incubated for 1 h at room temperature. […] Luminescence was determined via streptavidin conjugated with horseradish peroxidase (HRP; Thermo Fisher Scientific, 21126; 1:5,000, 1 h at room temperature) in reaction with the Pierce ECL substrate (Thermo Fisher Scientific, 32106). Luminescence from blank wells that contained all reagents but the sample lysates was used to determine nonspecific binding. To obtain the binding curves, results from binding assays were fitted to the equation of specific binding with Hill slope from GraphPad Prism 9.2. To calculate koff values, results were fitted to the equation of dissociation of one phase exponential decay from GraphPad Prism 9.2.

For the next assay, the system named is BDNF protein. Nature of the assay: BDNF protein ELISA in cortical neurons. The class given is cell-based, rat. Particulars: for BDNF protein, group mean (5g): LSD 100 nM, vehicle 100. Here is the method: To determine BDNF protein concentrations, ELISA was run as previously described[83] with minor modifications. […] Samples were diluted in Hanks buffer (125 mM NaCl, 5 mM KCl, 1.2 mM NaH2PO4, 1 mM CaCl2, 1.2 mM MgCl2, 1 μM ZnCl2, 10 mM glucose, 25 mM HEPES and 0.25% BSA, pH 7.4). Samples and BDNF standards (10–1,000 pg ml^−1, Peprotech) were acidified at room temperature to pH 3 by adding 1 M HCl and neutralized to pH 7 after 15 min with 1 M NaOH. A Maxisorb Nunc ELISA plate (Thermo Scientific) previously coated with a primary BDNF antibody (1:1,000 in carbonate buffer, overnight, 4 °C) and blocked (2% BSA and 0.1% Triton X-100 in Hanks buffer, 2 h, room temperature). Then, 170 µl of samples and standards were added to the plate with 30 µl of the secondary POD-conjugated BDNF antibody (1:1,000 in 6.66% BSA and 0.66% Triton X-100 in Hanks buffer). The BDNF antibodies were received from Roche and have been previously described. After incubating overnight at 4 °C the plate was washed with PBS-T. BM Blue POD substrate (Roche, 54827-17-1) was added to each well, and the colorimetric reaction was stopped after 20 min by adding 50 µl of 1 M H2SO4. Absorbance was measured at […] with a plate reader (Varioskan Flash, Thermo Scientific).
On the technique in general: ELISA stands for enzyme-linked immunosorbent assay.

T1 sequence (P15209 32-821 Y433F): as the sequence (P15209 32-821) above, with Y402F counted along it
T1 sequence (P15209 32-821, stated change not applied): as the sequence (P15209 32-821) above

Take `CCN(CC)C(=O)C1C=C2c3cccc4[nH]cc(c34)CC2N(C)C1` (centres unmarked) [LSD, lysergic acid diethylamide]: the results for the “TrkB:PLCγ1 interaction” value on TrkB:PLCγ1 [1] and on TrkB:PLCγ1 [2] were “these effects are impaired” and “increases TrkB:PLCγ1 interaction”, respectively. Also, the “phosphorylation of mTOR” value in the assay on pmTOR is “promotes phosphorylation of mTOR for at least 1 h”. Besides, the “total TrkB expression” value is “No differences in total TrkB expression” in the assay on TrkB [3] and “remain unaffected” in the assay on TrkB [4]. The Kd on mouse TrkB turned out to be 0.425 ± 0.296 nM. This molecule also displayed a Bmax on mouse TrkB (^3H-LSD saturation, mouse TrkB) of 7.388 ± 0.771 pmol mg^−1 protein. For the same molecule, the “Bmax (specific binding with Hill slope, best-fit)” value on mouse TrkB (ext fig 1b, TRKB.wt, n=2) was 117.1. At mouse TrkB (ext fig 1b, TRKB.wt, n=2), the “h (Hill slope, best-fit)” value was determined as 0.5552. Moreover, the “BDNF protein, group mean (5g)” value in the assay with BDNF protein (5 min) is on record as 101.1; in the assay with BDNF protein (1 h), 105.6; with BDNF protein (24 h) it was 146.4; in the assay on BDNF protein (72 h), 104.8. Moreover, the BDNF protein levels result in the assay with BDNF protein (after LSD treatment) was “elevated at 24 h”.
